Reference: paper PMC3914206

Legend:
[1] = biological target: T1, panel of 442 kinases (Homo sapiens, UniProt P15735); assay type: binding; conditions: Compound Concentration 10 µM
T1 construct: purchased KINOMEscan
T1 sequence (P15735 1-406): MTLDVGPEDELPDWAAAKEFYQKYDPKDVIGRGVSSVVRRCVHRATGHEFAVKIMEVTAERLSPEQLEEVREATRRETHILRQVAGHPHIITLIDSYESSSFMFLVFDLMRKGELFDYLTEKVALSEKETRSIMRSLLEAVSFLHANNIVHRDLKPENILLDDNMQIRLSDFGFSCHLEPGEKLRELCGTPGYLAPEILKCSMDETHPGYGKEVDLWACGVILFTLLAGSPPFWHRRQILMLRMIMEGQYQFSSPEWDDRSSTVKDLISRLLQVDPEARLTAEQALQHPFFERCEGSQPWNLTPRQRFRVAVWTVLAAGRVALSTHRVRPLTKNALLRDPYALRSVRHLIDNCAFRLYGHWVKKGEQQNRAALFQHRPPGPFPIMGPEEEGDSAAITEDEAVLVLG
From the text: (§1) We assessed the selectivity of members of this scaffold using the KINOMEscan methodology across a near comprehensive panel of 442 kinases [[18,27]].

[2] = biological target: T2, panel of 442 kinases (Homo sapiens, UniProt Q9NYY3); assay type: binding; conditions: Compound Concentration 10 µM
T2 construct: purchased KINOMEscan
From the text: as §1

T2 sequence (Q9NYY3 whole entry): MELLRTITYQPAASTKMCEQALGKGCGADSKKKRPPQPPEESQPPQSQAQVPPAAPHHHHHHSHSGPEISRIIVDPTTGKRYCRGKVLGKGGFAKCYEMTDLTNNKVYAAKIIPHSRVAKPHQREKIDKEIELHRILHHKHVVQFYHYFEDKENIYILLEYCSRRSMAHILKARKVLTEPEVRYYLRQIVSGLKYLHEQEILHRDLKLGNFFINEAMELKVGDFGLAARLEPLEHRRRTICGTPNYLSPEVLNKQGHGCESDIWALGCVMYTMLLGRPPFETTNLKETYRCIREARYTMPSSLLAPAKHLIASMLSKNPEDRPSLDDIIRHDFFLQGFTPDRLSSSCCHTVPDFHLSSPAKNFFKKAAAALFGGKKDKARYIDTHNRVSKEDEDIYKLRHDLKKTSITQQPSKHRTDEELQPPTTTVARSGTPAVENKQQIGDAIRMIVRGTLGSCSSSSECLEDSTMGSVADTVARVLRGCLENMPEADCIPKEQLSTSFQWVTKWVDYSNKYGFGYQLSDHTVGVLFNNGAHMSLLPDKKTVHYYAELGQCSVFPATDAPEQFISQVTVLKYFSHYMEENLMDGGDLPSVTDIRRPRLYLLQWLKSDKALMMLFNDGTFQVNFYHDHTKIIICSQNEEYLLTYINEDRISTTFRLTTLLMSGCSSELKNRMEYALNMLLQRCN

COc1cc(C(=O)N2CCC(N3CCN(C)CC3)CC2)ccc1Nc1ncc2c(n1)N(C)c1ccccc1C(=O)N2C [15 (LRRK2-IN-1)]
KINOMEscan: PHKG2 [1]: 33
KINOMEscan: PLK2 [2]: 100

COc1cc(C(=O)N2CCC(N3CCN(C)CC3)CC2)ccc1Nc1ncc2c(n1)N1CCc3cccc(c31)C(=O)N2C [Compound 24]
KINOMEscan: PHKG2 [1]: 47
KINOMEscan: PLK2 [2]: 8.8

COc1cc(C(=O)N2CCC(N3CCN(C)CC3)CC2)ccc1Nc1ncc2c(n1)N(C1CCCC1)c1ccccc1C(=O)N2C [Compound 25, 11-cyclopentyl-2-((2-methoxy-4-(4-(4-methylpiperazin-1-yl)piperidine-1-carbonyl)phenyl)amino)-5-methyl-5H-benzo[e]pyrimido[5,4-b][1,4]diazepin-6(11H)-one]
KINOMEscan: PHKG2 [1]: 68
KINOMEscan: PLK2 [2]: 100

CCOc1cc(C(=O)N2CCC(N3CCN(C)CC3)CC2)ccc1Nc1ncc2c(n1)N(C1CCCC1)c1ccccc1C(=O)N2C [Compound 26]
KINOMEscan: PHKG2 [1]: 90
KINOMEscan: PLK2 [2]: 97
